# From patent publication US20260124194A1 (priority 2022, published 2026)
# Where “and” joins values, the source holds several entries; their conditions need not be identical. Identical values can stand only once. Marks after values point to notes of the source that are not given here.
# Tests used:
# [1] = tested on: subjects with idiopathic Chronic Intestinal Pseudo-Obstruction (CIPO); conditions: in vivo
# Excerpt: Visits where assessed at the beginning of the screening period (Visit 1), at the beginning and at the end of each period of treatment (Visit 2 to Visit 9) and at the end of the follow-up period (Visit 10).
# PLA=matching placebo once daily for 4 weeks.
# Gastrointestinal symptom severity (abdominal pain, bloating, nausea and vomiting) and bowel habit (weekly recall) were registered on Day −1 and weekly after randomization, during both treatment and washout periods, as appropriate according to the Schedule of Assessments using an e-diary until end of follow up period.
# Subjects were instructed to take three capsules of medication orally, once daily at approximately the same time each morning, on an empty stomach, with water.
# The Primary efficacy endpoints was to evaluate the change in weekly global gastrointestinal symptoms average index score (WGGSAIS) from start to the end of each treatment period.
# The WGGSAIS was obtained by averaging the scores for each of the 4 symptoms assessed weekly: abdominal pain, bloating, nausea and vomiting, with lower scores representing better health. If at least 2 symptoms were assessed, the average score was calculated, otherwise, it was considered missing.
# Change between the end of treatment and pre-treatment WGGSAIS value≤−1 point was computed and considered a “success” while changes >−1 were considered a “failure”. The proportion of subjects with a 1-point improvement in WGGSAIS is summarized by treatment sequence, period and timepoint (weekly evaluation by e Diary.
# Considering the evaluable pairs, the proportions of pairs of observations with 1-point improvement in WGGSAIS is summarized by treatment and timepoint. […]
# Considering the evaluable pairs, the number of pseudo-obstruction episodes occurring within each treatment period and number of pseudo-obstruction episodes occurring within wash-out/follow up was considered as categorical variables classified as 0, 1, 2 and >2 and are summarized by treatment.
# The same descriptive analyses described above are repeated focusing on change from the end of each treatment period to the end of each week of washout period or follow-up period instead of the change between post-treatment and pre-treatment.
# [2] = tested on: Prp-SCA7-92Q transgenic mice; assay: Morphometric gut evaluation (HE histological score) in Prp-SCA7-92Q transgenic mice; assay type: in vivo; conditions: Prp-SCA7-92Q mice
# Description: After mice were sacrificed by CO2 inhalation, the small intestine and colon tissue were cut, fixed for 48 hours with 10% neutral buffered formalin. The paraffin sample was prepared by dehydration with a series of gradient alcohol solutions according to standard methods known in the field. Tissues were cut into 4 μm sections by rotary microtome and baked for 2 hours at 60° C. After (HE) hematoxylin-eosin (HE) images were obtained from each animal at 20× magnification for histological analyses by fully automatic digital pathology slide-system (KF BIO, KF-PRO-005, China) using K-viewer Imaging software (KF BiO, V1, China).
# The presence of inflammation and ulcers was quantified using indicators (i.e. ulcers=% area with intestinal mucosal damage, inflammation=necrosis, bleeding) to which a score from 0 to 3 was associated. Inflammation and ulcers scoring were awarded after section evaluation and analysis.
# [3] = tested on: subjects with idiopathic Chronic Intestinal Pseudo-Obstruction (CIPO)
# Description: Safety was assessed at each visit measuring and evaluating changes from the baseline of the following parameters: • Vital signs (including blood pressure, pulse, temperature). • Physical examination also including height and weight. • Routine laboratory parameters (hematocrit, hemoglobin, red blood cell count, white blood cell count with differential count and platelet count for hematology; glycaemia, total cholesterol, triglycerides, serum creatinine, urea or blood urea nitrogen [BUN], sodium, potassium, chloride, AST, ALT, Gamma-GT, alkaline phosphatase, total and fractioned bilirubin (direct and indirect), erythrocyte sedimentation rate, PT (or INR), aPTT for biochemistry; specific gravity, pH, protein, glucose, ketones, hemoglobin, nitrite, bilirubin, urobilinogen and microscopic examination for urinalysis). • Triplicate ECG • Adverse events (AEs). • Withdrawal from study due to AEs.
# Adverse events starting on or after the first intake of investigational product were considered treatment-emergent AEs (TEAEs). Verbatim terms for AEs were coded using the most current version of Medical Dictionary for Regulatory Activities (MedDRA) coding. […]
# Prp-SCA7-92Q mice = assay: Body weight and tolerability in Prp-SCA7-92Q mice; assay type: in vivo; conditions: 1 and 3 mg/kg, 5 weeks of treatment
# Excerpt: A normal control (NC) group of untreated wild-type mice was also examined. No significant differences were noticed between groups (FIG. 13).
# [4] = tested on: patients with chronic intestinal pseudo-obstruction; conditions: prucalopride 2 mg, 12-week periods, cited from earlier work
compound,measurement,setting,value
"CC(C)n1c(=O)c(C(=O)N[C@H]2C[C@H]3CC[C@@H](C2)N3C[C@@H](O)CN(C)S(C)(=O)=O)cc2ccccc21 [velusetrag, 1-isopropyl-2-oxo-1,2-dihydroquinoline-3-carboxylic acid {(1S,3R,5R)-8-[(R)-2-hydroxy-3-(methanesulfonyl-methyl-amino)propyl]-8-azabicyclo[3.2.1]oct-3-yl}amide]","WGGSAIS total score, mean change from end of treatment at the end of wash-out",[1],0.54±0.736
same,"WGGSAIS, mean",[1],1.707 and 1.608 and 1.367 and 1.458
same,"WGGSAIS, mean change from pre-treatment to end of treatment",[1],−0.529±0.7956
same,"WGGSAIS, mean difference between treatments (velusetrag minus placebo)",[1],−0.342+0.9343
same,"Inflammation (count of necrosis) score, DSI",[2]; 1 mg/kg po once daily 5 weeks,1.6 ± 0.1
same,"Inflammation (count of necrosis) score, Proximal Colon",[2]; 1 mg/kg po once daily 5 weeks,1.5 ± 0.1
same,"Total score, DSI",[2]; 1 mg/kg po once daily 5 weeks,2.4 ± 0.1
same,"Total score, Proximal Colon",[2]; 1 mg/kg po once daily 5 weeks,2.4 ± 0.1
same,"Ulcers (mucosal damage) score, DSI",[2]; 1 mg/kg po once daily 5 weeks,0.8 ± 0.1^∘
same,"Ulcers (mucosal damage) score, Proximal Colon",[2]; 1 mg/kg po once daily 5 weeks,0.9 ± 0.05
same,"Inflammation (count of necrosis) score, DSI",[2]; 3 mg/kg po once daily 5 weeks,1.2 ± 0.1*^∘∘∘
same,"Inflammation (count of necrosis) score, Proximal Colon",[2]; 3 mg/kg po once daily 5 weeks,1.1 ± 0.1*^∘∘∘
same,"Total score, DSI",[2]; 3 mg/kg po once daily 5 weeks,1.8 ± 0.1**^∘
same,"Total score, Proximal Colon",[2]; 3 mg/kg po once daily 5 weeks,1.5 ± 0.1*^∘∘∘
same,"Ulcers (mucosal damage) score, DSI",[2]; 3 mg/kg po once daily 5 weeks,0.6 ± 0.1^∘
same,"Ulcers (mucosal damage) score, Proximal Colon",[2]; 3 mg/kg po once daily 5 weeks,0.4 ± 0.01^∘∘
same,total TEAEs classified as velusetrag emergent,[3]; Safety Set (placebo emergent 38),29
same,"subjects with TEAEs classified as velusetrag emergent, %","[3]; Safety Set, 17 subjects (placebo emergent 58.82%)",41.18%
same,tolerability: body weight and lethality throughout treatment,Prp-SCA7-92Q mice,no reduction in body weight and lethality was observed
COCCCN1CCC(NC(=O)c2cc(Cl)c(N)c3c2OCC3)CC1 [prucalopride],stool frequency and consistency,[4],did not affect
same,patients with significantly improved bloating,[4]; four completers,four
same,patients with significantly improved nausea,[4]; four completers,two
same,patients with significantly improved pain,[4]; four completers,three of four patients
same,patients with significantly improved vomiting,[4]; four completers,one
